Results on 4 compounds are retold here after patent US12396959B2, “Thermoresponsive hydrogel containing polymer microparticles for noninvasive ocular drug delivery” (University of Pittsburgh—Of the Commonwealth System of …, priority 2013, dated 2025).

The test system of data set [1] is New Zealand White rabbits. Nature of the data set: Post-mortem T1-weighted MRI after intravitreal injection of Gd-DOTA in thermoresponsive hydrogel. In kind it is in vivo, rabbit. Particulars: 24 h after intravitreal injection. On the procedure: Scans were performed within one hour of sacrifice. Soluble Gd-DOTA without MP encapsulation was largely cleared from the injection site at 24 h, with only 56% and 59% signal intensity (relative to nearby muscle tissue) in the vitreous and anterior chamber, respectively. […] The spatiotemporal distribution of Gd-DOTA into the rest of the eye will also provide valuable data for future controlled release formulations of other ocular therapeutics, such as those targeting the posterior segment of the eye.

The conditions of data set [2]: in vivo; cited from earlier work.
The nature of data set [3]: Loading and release of other drugs from microparticles embedded within the gel. In kind it is physicochemical. The source says:
The loading and release of other drugs (moxiflxacin and vancomycin) with the microparticles embedded within the gel has also been confirmed.

Turning to `O=C([O-])CN1CCN(CC(=O)[O-])CCN(CC(=O)O)CCN(CC(=O)[O-])CC1.[Gd+3]` [Soluble Gd-DOTA, gadolinium-tetraazocyclododecanetetraacetic acid], in data set [1], the “signal intensity relative to nearby muscle tissue, anterior chamber” value is reported as 59% and the “signal intensity relative to nearby muscle tissue, vitreous” value is on record as 56%.

For the compound `O=C([O-])CN(CCN(CC(=O)[O-])CC(=O)O)CCN(CC(=O)[O-])CC(=O)O.[Gd+3]` [Gd-DTPA], the ocular half-life in data set [2] is listed as 28.08 min.

Regarding `CN[C@H](CC(C)C)C(=O)N[C@H]1C(=O)N[C@@H](CC(N)=O)C(=O)N[C@H]2C(=O)N[C@H]3C(=O)N[C@H](C(=O)N[C@H](C(=O)O)c4cc(O)cc(O)c4-c4cc3ccc4O)[C@H](O)c3ccc(c(Cl)c3)Oc3cc2cc(c3O[C@@H]2O[C@H](CO)[C@@H](O)[C@H](O)[C@H]2O[C@H]2C[C@](C)(N)[C@H](O)[C@H](C)O2)Oc2ccc(cc2Cl)[C@H]1O` [vancomycin], the “loading and release with microparticles embedded within the gel” value in data set [3] is “confirmed”.

In the case of Brimonidine tartrate [BT], the ocular half-life in data set [2] was 28.2 min.
